The source of these data is EP0429856A2, “Pharmaceutical preparation containing a metal salt of ibuprofen and process for making same” (Dolorgiet GmbH & Co. KG, priority 1989, dated 1991).

The nature of the series: Solubility of ibuprofen salts in saturated solutions at room temperature (HPLC, UV detection). The text has this: Zur Bestimmung der Löslichkeit der Ibuprofen-Salze werden bei Raumtemperatur gesättigte Lösungen hergestellt. Ein aliguoter Teil dieser Lösungen wird mit einem mit der Lösung mischbaren Lösungsmittel verdünnt und der Gehalt an Ibuprofen mittels HPLC über eine Reversed-Phase-Säule und UV-Detektion bestimmt.

[1] abbreviates: 1,2-Propandiol/Glycerin/Wasser (2/4/3;v/v/v).
Setting [2] is: 1,2-Propandiol/Polyethylenglykol 400/Wasser (5/3/6;v/v/v).
Setting [3] is: Cabrylic/Capric Triglyceride (Miglyol 810).
Setting [4] is: Caprylic/Capric Triglyceride (Miglyol 812).
Setting [5] is: Ethanol/1,2-Propandiol/Wasser (1/4/4;v/v/v).
Where [6] appears, read: Polyoxyethylen-(7)-glycerin-kokosnußöfettsäure-ester.
Where [7] appears, read: Polyoxyethylierte Olein-Glyceride (Labrafil M 1944 CS).

Consider Ibuprofen-Magnesiumsalz [Ibuprofen-Mg], for which the “Löslichkeit von Ibuprofen-Salzen bei Raumtemperatur” value worked out at 160 mg Ibuprofen/ml (1,2-Propandiol); 250 mg Ibuprofen/ml under setting [1]; 125 mg Ibuprofen/ml under setting [2]; 35 mg Ibuprofen/ml under setting [3]; 17 mg Ibuprofen/ml under setting [4]; 500 mg Ibuprofen/ml (Ethanol). Besides, the “Löslichkeit von Ibuprofen-Salzen bei Raumtemperatur” value is 330 mg Ibuprofen/ml under setting [5]; 8 mg Ibuprofen/ml (Glycerin); 450 mg Ibuprofen/ml (Glycerinmonoricinoleat); 260 mg Ibuprofen/ml (Isopropylmyristat); 0,4 mg Ibuprofen/ml (Paraffinum supl.); 40 mg Ibuprofen/ml (Polyethylenglykol 400). Besides, the “Löslichkeit von Ibuprofen-Salzen bei Raumtemperatur” value was 480 mg Ibuprofen/ml under setting [6], 380 mg Ibuprofen/ml under setting [7] and 7 mg Ibuprofen/ml (Wasser).
Take “Aluminiumdiibuprofen (1 : 2) [Ibuprofen-Al (2 : 1)]”: the “Löslichkeit von Ibuprofen-Salzen bei Raumtemperatur” value is given as 0,8 mg Ibuprofen/ml (1,2-Propandiol); < 0,1 mg Ibuprofen/ml under setting [1]; < 0,1 mg Ibuprofen/ml under setting [2]; 0,5 mg Ibuprofen/ml under setting [3]; 0,3 mg Ibuprofen/ml under setting [4]; 2 mg Ibuprofen/ml (Ethanol). Moreover, the “Löslichkeit von Ibuprofen-Salzen bei Raumtemperatur” value is, setting by setting: under setting [5], < 0,1 mg Ibuprofen/ml; (Glycerin) < 0,1 mg Ibuprofen/ml; (Glycerinmonoricinoleat) 4,5 mg Ibuprofen/ml; (Isopropylmyristat) 1 mg Ibuprofen/ml; (Paraffinum supl.) < 0,1 mg Ibuprofen/ml; (Polyethylenglykol 400) 2 mg Ibuprofen/ml. The “Löslichkeit von Ibuprofen-Salzen bei Raumtemperatur” value under setting [6] turned out to be 6 mg Ibuprofen/ml, the “Löslichkeit von Ibuprofen-Salzen bei Raumtemperatur” value under setting [7] came to 4 mg Ibuprofen/ml and the “Löslichkeit von Ibuprofen-Salzen bei Raumtemperatur” value (Wasser) is reported as < 0,1 mg Ibuprofen/ml.
